The conditions of data set [1]: cited from earlier work.
The nature of data set [2]: Plasma sCT Cmax in Beagle dogs after oral tablet (ELISA). It is filed as in vivo. The following applies: for Cmax: Beagle, dog, plasma, po, 1.7 mg, oral tablet 1.7 mg sCT. How it is done:
Following application of the indicated amounts of HPMC to the indicated weight gain (in those examples utilizing the undercoat), the tablets were then sealed with an enteric coat made of Eudragit L30D-55 to the indicated further weight gain. Beagle dogs were given a tablet of the indicated combination of undercoat-enteric coat and aliquots of blood were taken at 15 minute intervals for 4 hours. Plasma was separated from the blood samples and analyzed for sCT by ELISA.
For orientation: In an ELISA, binding on a coated surface is turned into a signal by an enzyme label.

In the case of `CC(C)C[C@H](NC(=O)[C@H](CCCCN)NC(=O)CNC(=O)[C@H](CC(C)C)NC(=O)[C@@H](NC(=O)[C@@H]1CSSC[C@H](N)C(=O)N[C@@H](CO)C(=O)N[C@@H](CC(N)=O)C(=O)N[C@@H](CC(C)C)C(=O)N[C@@H](CO)C(=O)N[C@@H]([C@@H](C)O)C(=O)N1)C(C)C)C(=O)N[C@@H](CO)C(=O)N[C@@H](CCC(N)=O)C(=O)N[C@@H](CCC(=O)O)C(=O)N[C@@H](CC(C)C)C(=O)N[C@@H](Cc1c[nH]cn1)C(=O)N[C@@H](CCCCN)C(=O)N[C@@H](CC(C)C)C(=O)N[C@@H](CCC(N)=O)C(=O)N[C@H](C(=O)N[C@@H](Cc1ccc(O)cc1)C(=O)N1CCC[C@H]1C(=O)N[C@@H](CCCNC(=N)N)C(=O)N[C@H](C(=O)N[C@@H](CC(N)=O)C(=O)N[C@H](C(=O)NCC(=O)N[C@@H](CO)C(=O)NCC(=O)N[C@H](C(=O)N1CCC[C@H]1C(N)=O)[C@@H](C)O)[C@@H](C)O)[C@@H](C)O)[C@@H](C)O` [sCT, salmon calcitonin], the “time after injection beyond which there are usually no detectable blood levels” value in data set [1] (injection at conventional dosages) is reported as “more than two”. In data set [1] (patients), the “peak levels at which some patients report side-effects such as flushing nausea” value is reported as not below 200 picograms per milliliter. Besides, the half-life – broadly, how long it takes for the measured level to halve – in data set [1] (subcutaneous administration in man) is 20 to 40 min. In data set [1] (subcutaneous administration, 100 International units), the peak serum concentration entry is on record as “about 250 picograms per milliliter”. The Cmax (usually the peak of the concentration-time curve) worked out at 0.07 ng/mL in data set [2] (HPMC undercoat 0%, L30D-55 enteric coat 4% tablet weight gain); 0.121 ng/mL in data set [2] (HPMC undercoat 0%, L30D-55 enteric coat 7% tablet weight gain); 0.142 ng/mL in data set [2] (HPMC undercoat 3%, L30D-55 enteric coat 4% tablet weight gain); 0.378 ng/mL in data set [2] (HPMC undercoat 3%, L30D-55 enteric coat 7% tablet weight gain); 0.667 ng/mL in data set [2] (HPMC undercoat 6%, L30D-55 enteric coat 4% tablet weight gain); 0.51 ng/mL in data set [2] (HPMC undercoat 6%, L30D-55 enteric coat 7% tablet weight gain). Moreover, in data set [2] (absence of an undercoat), the “increase of sCT Cmax when amount of enteric coat was increased nearly 1.75 fold” value was 1.7 fold. In addition, in data set [2] (one embodiment), the “increase of sCT Cmax when an HPMC undercoat was included” value was “more than 9 fold”.

Source of the values: patent US9399017B2, “Peptide pharmaceutical for oral delivery” (Enteris BioPharma, Inc., priority 2007, dated 2016).
